Assay results as given in patent publication US20140275233A1, “ACTIVATED SOY POD FIBER” (priority 2013, published 2014).
Values joined by “and” are separate entries in the source; they are usually repeats but may differ in a detail not shown here. Equal values may be shown once.

Tested on: 3T3-L1 adipocytes
Assay: [3H]-2-deoxy-glucose uptake by adipocytes
Assay type: cell-based, Murine
Method: To determine if one mechanism for glyceollins to improve the oral glucose challenge in a prediabetic model is by increasing the glucose uptake by fat, glyceollin pharmacology was studied in 3T3-L1 cells. Murine preadipocytes (Zen-Bio Inc.) were cultured using PM-1-L1 medium (Zen-Bio Inc.) containing Dulbecco's modified Eagle's medium (DMEM)/Ham's F-10 medium (1:1, v/v), HEPES 15 mM (pH 7.4), 10% (v/v) fetal bovine serum, penicillin (100 U/ml), streptomycin ([…]), and amphotericin B (0.25 μg/ml) in a humidified atmosphere (5% CO2/95% air). After 3-4 days, confluent cells were placed in differentiation medium (DM-2-L1, Zen-Bio Inc.) containing DMEM/Ham's F-10 medium (1:1, v/v), HEPES 15 mM (pH 7.4), 3% (v/v) fetal bovine serum, biotin (33 μM), pantothenate (17 μM), human insulin (100 nM), dexamethasone (1 μM), penicillin (100 U/ml), streptomycin (100 μg/ml), amphotericin B (0.25 μg/ml), isobutylmethylxanthine ([…]) and PPARγ agonist (10 μM) and further incubated in the humidified atmosphere for 3 days. […]
Adipocytes were rinsed in sterile, fresh KRH buffer (HEPES pH=7.4, 1 mM CaCl2, 1.2 mM MgSO4, 1 mM KH2PO4, 1.4 mM KCl, […], 130 mM NaCl), and then preincubated for 24 h in KRH buffer. […] The vials were mixed and counted for 10 min in an Applied Biosystems 1100 liquid scintillation counter using the factory preset window to detect tritium.

With insulin the EC50 (30 min exposure at 37° C., 0.3-300 nM, n=6, read-out: EC50 of insulin-mediated glucose uptake) was 1.9 nM and 1.92 nM and the “maximal stimulation of glucose uptake relative to basal” value (insulin 0.3 nM-300 nM) was “about 3 times”.
